From patent US20080103123A1, “New compounds” (Biovitrum, priority 2006, published 2008)
Read-outs that look alike come from different tables or passages of the source.

Target: T1, human GPR119 receptor (Homo sapiens, UniProt Q8TDV5)
T1 construct: expressed in transfected cells
T1 sequence (Q8TDV5 1-335): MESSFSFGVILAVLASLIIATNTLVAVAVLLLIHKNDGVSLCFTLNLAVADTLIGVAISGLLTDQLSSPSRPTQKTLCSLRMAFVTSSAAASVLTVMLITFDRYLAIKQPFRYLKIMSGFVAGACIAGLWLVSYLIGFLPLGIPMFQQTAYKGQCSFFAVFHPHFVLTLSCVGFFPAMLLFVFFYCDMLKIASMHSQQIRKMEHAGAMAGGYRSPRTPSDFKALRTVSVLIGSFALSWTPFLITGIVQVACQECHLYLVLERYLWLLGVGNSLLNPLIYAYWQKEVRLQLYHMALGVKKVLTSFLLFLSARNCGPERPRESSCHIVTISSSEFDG
Assay: Human GPR119 Activity Assay (cAMP, HTRF)
Assay type: cell-based
Protocol: Human GPR119 Activity Assay
Agonists to the human GPR119 receptor were characterized by measuring human GPR119 receptor-mediated stimulation of cyclic AMP (cAMP) in HEK 293 cells expressing the human GPR119 receptor.
Briefly, cAMP content was determined using a cAMP kit based on HTRF technology (Homogeneous Time-Resolved Fluorescence, Cisbio Cat. no. 62AM2PEC). HEK293 cells stably expressing the human GPR119 receptor (HEK293-hGPR119 cells) were cultured in DMEM (Gibco # 31966-021) supplemented with 10% Bovine Calf Serum (Hyclone # SH30072.03), and, 500 μg/mL Hygromycin B (Roche Diagnostics 843555). At 80% confluency, cells were detached using Trypsine and aliquoted at a density of 5×10^6 cells/mL in freezing medium (DMEM (Gibco # 31966-021), 20% BCS (Hyclone # SH30072.03), 10% DMSO (Sigma #D2650) and stored at −135° C. On the experimental day, HEK293-hGPR119 cells were thawn and diluted to 0.4×10^6 cells/mL in assay buffer (1×HBSS (Gibco Cat. no. 14025-049), 20 mM Hepes (Gibco Cat. no. 15630-056), 0.1% BSA, pH 7.4) and incubated with test substances for 20 min at room temperature. After addition of HTRF reagents diluted in lysis buffer, the 96- or 384-well plates were incubated 1 hour, followed by measuring the fluorescence ratio at 665 nm/620 nm. Test substances was diluted in compound buffer (1×HBSS (Gibco Cat. no. 14025-049), 20 mM Hepes (Gibco Cat. no. 15630-056), 0.1% BSA, 2 mM IBMX (Sigma-Aldrich Cat. No. 17018, pH 7.4). The potency of the agonist was quantified by determine the concentration that cause 50% activation of hGPR119 evoked increase in cAMP, EC50.

[1] = stimulation of cAMP in HEK293 cells stably expressing human GPR119, 20 min at room temperature, HTRF, read-out: EC50 (μM), Agonist potency at the human GPR119

| EC50 [1] [µM] | SMILES | EC50 [µM] |
| --- | --- | --- |
| 0.11 | CS(=O)(=O)c1ccc(-c2ccc(OCC3CCN(C(=O)OCc4ccccc4)CC3)nc2)cc1 [EXAMPLE A2, Benzyl 4-[({5-[4-(methylsulfonyl)phenyl]pyridin-2-yl}oxy)methyl]piperidine-1-carboxylate] |  |
| 0.139 | CN(Cc1ccc(-c2ccc(S(C)(=O)=O)cc2)cn1)C1CCN(C(=O)OC(C)(C)C)CC1 [EXAMPLE A39, tert-Butyl 4-[methyl({5-[4-(methylsulfonyl)phenyl]pyridin-2-yl}methyl)amino]-piperidine-1-carboxylate] |  |
|  | CN(Cc1ccc(-c2ccc(S(C)(=O)=O)cc2)nc1)C1CCN(C(=O)OC(C)(C)C)CC1 [EXAMPLE B2, tert-Butyl 4-[methyl({6-[4-(methylsulfonyl)phenyl]pyridin-3-yl}methyl)amino]-piperidine-1-carboxylate] | 0.022 |
